Experimental data as given in publication PMC6226181 (PLoS ONE, 2018).
Non-standard residues stand in square brackets, D forms with d. Residues, ends and D or L forms follow the SMILES beside them. *: point of attachment. AFC = O=c1cc(C(F)(F)F)c2ccc(N*)cc2o1; AMC = Cc1cc(=O)oc2cc(N*)ccc12

Key:
anthrax lethal factor [1] = biological target: T1, anthrax lethal factor (Bacillus anthracis, UniProt P15917); conditions: cited from earlier work
anthrax lethal factor [2] = biological target: T1, anthrax lethal factor; assay type: biochemical; conditions: 5 hours at 37°C
anthrax lethal factor [3] = biological target: T1, anthrax lethal factor; assay type: biochemical; conditions: 5 hours at 37°C; remark: listed apart in the source

T1 sequence (P15917 34-809 limits assumed): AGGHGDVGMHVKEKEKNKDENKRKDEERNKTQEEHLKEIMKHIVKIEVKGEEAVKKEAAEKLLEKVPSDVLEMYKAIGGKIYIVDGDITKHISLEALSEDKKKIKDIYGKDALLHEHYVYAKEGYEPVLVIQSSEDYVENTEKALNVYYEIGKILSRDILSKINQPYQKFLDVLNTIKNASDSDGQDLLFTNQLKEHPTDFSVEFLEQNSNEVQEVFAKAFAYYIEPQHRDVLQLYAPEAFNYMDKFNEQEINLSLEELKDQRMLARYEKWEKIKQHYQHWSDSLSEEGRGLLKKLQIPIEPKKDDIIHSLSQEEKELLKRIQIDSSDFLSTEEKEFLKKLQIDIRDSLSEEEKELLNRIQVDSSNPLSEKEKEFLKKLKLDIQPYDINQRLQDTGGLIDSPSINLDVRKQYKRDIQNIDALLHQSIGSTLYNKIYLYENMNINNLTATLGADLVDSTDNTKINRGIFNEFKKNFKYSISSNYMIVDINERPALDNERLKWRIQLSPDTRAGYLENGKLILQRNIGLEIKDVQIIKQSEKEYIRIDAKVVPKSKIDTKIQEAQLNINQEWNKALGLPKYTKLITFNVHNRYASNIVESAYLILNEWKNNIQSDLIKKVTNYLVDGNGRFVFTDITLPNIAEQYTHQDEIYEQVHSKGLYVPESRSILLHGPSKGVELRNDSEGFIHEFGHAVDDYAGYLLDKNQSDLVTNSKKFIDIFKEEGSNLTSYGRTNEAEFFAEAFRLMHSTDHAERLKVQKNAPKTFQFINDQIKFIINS

In the case of “7-methoxy-coumarin-4-acetyl (Mca)-Arg-Arg-Lys-Lys-Val-Tyr-Pro-Try-Pro-Met-Glu -2,4-dinitrophenol (DNP) -Thr-Ile-Ala”, the “Cleavage by LF” value (anthrax lethal factor [1]) is listed as “cleaved by LF after the first proline”.

For `CC(=O)N[C@@H](CCCNC(=N)N)C(=O)N[C@@H](CCCNC(=N)N)C(=O)N[C@@H](CCCCN)C(=O)N[C@@H](CCCCN)C(=O)N[C@H](C(=O)N[C@@H](Cc1ccc(O)cc1)C(=O)N1CCC[C@H]1C(=O)Nc1ccc2c(C)cc(=O)oc2c1)C(C)C` [LBL 10079] (Ac-RRKKVYP-{AMC}), the “Cleavage by LF in 1:10 diluted bovine plasma (increase in fluorescence)” value (anthrax lethal factor [2]) was “does not correlate with the amount of LF”.

In the case of `CC(=O)N[C@H](CCCNC(=N)N)C(=O)N[C@H](CCCNC(=N)N)C(=O)N[C@H](CCCCN)C(=O)N[C@H](CCCCN)C(=O)N[C@H](C(=O)N[C@@H](Cc1ccc(O)cc1)C(=O)N1CCC[C@H]1C(=O)Nc1ccc2c(C)cc(=O)oc2c1)C(C)C` [LBL 10097] (Ac-[dR][dR][dK][dK]VYP-{AMC}), the “Cleavage by LF in 1:10 diluted bovine plasma (increase in fluorescence)” value (anthrax lethal factor [2]) is reported as “dependent upon the presence and amount of LF”.

In the case of `CC(=O)N[C@H](CCCCN)C(=O)N[C@H](CCCCN)C(=O)N[C@H](C(=O)N[C@@H](Cc1ccc(O)cc1)C(=O)N1CCC[C@H]1C(=O)Nc1ccc2c(C)cc(=O)oc2c1)C(C)C` [LBL 10100] (Ac-[dK][dK]VYP-{AMC}), the “Cleavage by LF in assay buffer (increase in fluorescence)” value (anthrax lethal factor [3]) is reported as “eliminates hydrolysis at the concentrations of LF used”.

In the case of `CC(=O)N[C@@H](CCCNC(=N)N)C(=O)N[C@H](CCCNC(=N)N)C(=O)N[C@H](CCCCN)C(=O)N[C@H](CCCCN)C(=O)N[C@H](C(=O)N[C@@H](Cc1ccc(O)cc1)C(=O)N1CCC[C@H]1C(=O)Nc1ccc2c(C(F)(F)F)cc(=O)oc2c1)C(C)C` [LBL 10108] (Ac-R[dR][dK][dK]VYP-{AFC}), the “Non-specific cleavage in plasma in the absence of LF” value (plasma proteases) is reported as “neither peptide is cleaved in plasma in the absence of LF”.
